Earlier results on one compound are cited in publication PMC11822664, “First‐In‐Human Dose Finding Study of Venadaparib (IDX‐1197), a Potent and Selective PARP Inhibitor, in Patients With Advanced Solid Tumors” (Cancer Medicine, 2025).

In one data set the test system is PARP. Particulars: olaparib phase I trial ref 22; cited from earlier work.
The subject of data set [1] is patients with advanced ovarian cancer. The settings on record: cited from earlier work.
Setting [2] is: advanced ovarian cancer with ≥ 2 prior systemic treatments ref 33.

For `O=C(c1cc(Cc2n[nH]c(=O)c3ccccc23)ccc1F)N1CCN(C(=O)C2CC2)CC1` [olaparib], the “Dose from which clinical benefit started” value in the data set with PARP is on record as ≥ 100 mg twice daily (BID). Besides, in data set [1] (advanced ovarian cancer ref 33), the Anemia incidence was 46% and the Neutropenia incidence is given as 24%. Further, in data set [1] (setting [2]), the Nausea incidence result is listed as “approximately 76%” and the Vomiting incidence is approximately 40%.
